According to patent publication US20260015358A1, “BICYCLIC DERIVATIVES, COMPOSITIONS AND USES THEREOF” (Danatlas Pharmaceuticals Co., Ltd., priority 2023, published 2026):

What was measured:
[1] = molecular target: T1, WRN [UniPro: Q14191 (WRN_HUMAN), N500-C946] (Homo sapiens (Human), UniProt Q14191); assay: WRN ATPase assay (ADP-Glo); type: biochemical; conditions: WRN enzymatic activity assay
[2] = molecular target: T1, WRN [UniPro: Q14191 (WRN_HUMAN), N500-C946]; assay: WRN unwinding assay (FORKF DNA, fluorescence); type: biochemical; conditions: Table 14

T1 sequence (Q14191 500-946): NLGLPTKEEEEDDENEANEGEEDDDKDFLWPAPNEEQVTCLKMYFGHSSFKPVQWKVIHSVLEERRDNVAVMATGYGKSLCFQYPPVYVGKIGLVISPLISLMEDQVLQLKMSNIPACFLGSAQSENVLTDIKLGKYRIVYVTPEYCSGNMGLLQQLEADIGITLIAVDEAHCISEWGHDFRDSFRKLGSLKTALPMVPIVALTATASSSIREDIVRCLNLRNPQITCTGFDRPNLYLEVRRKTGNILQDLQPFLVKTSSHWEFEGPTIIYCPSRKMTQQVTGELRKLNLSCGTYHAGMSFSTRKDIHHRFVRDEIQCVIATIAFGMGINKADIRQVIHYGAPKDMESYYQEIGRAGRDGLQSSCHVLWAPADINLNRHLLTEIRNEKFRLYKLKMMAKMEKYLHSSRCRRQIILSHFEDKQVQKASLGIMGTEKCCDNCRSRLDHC

| SMILES | IC50 [1] [nM] | IC50 [2] [nM] |
| --- | --- | --- |
| CCc1c(N2CCN(C(=O)CNC(=O)N3Cc4ccncc4C3)CC2)c(=O)n2nc(C3=CCOCC3)nc2n1CC(=O)Nc1ccc(C(F)(F)F)cc1Cl [Example 192, N-(2-(4-(4-(2-((2-Chloro-4-(trifluoromethyl)phenyl)amino)-2-oxoethyl)-2-(3,6-dihydro-2H-pyran-4-yl)-5-ethyl-7-oxo-4,7-dihydro-[1,2,4]triazolo[1,5-a]pyrimidin-6-yl)piperazin-1-yl)-2-oxoethyl)-1,3-dihydro-2H-pyrrolo[3,4-c]pyridine-2-carboxamide] | < 100 | < 100 |
| CCc1c(N2CCN(C(=O)c3c(O)cc(C)oc3=O)CC2)c(=O)n2nc(C3=CCOCC3)nc2n1CC(=O)Nc1ccc(C(F)(F)F)cc1Cl [Example 4, N-(2-Chloro-4-(trifluoromethyl)phenyl)-2-(2-(3,6-dihydro-2H-pyran-4-yl)-5-ethyl-6-(4-(4-hydroxy-6-methyl-2-oxo-2H-pyran-3-carbonyl)piperazin-1-yl)-7-oxo-[1,2,4]triazolo[1,5-a]pyrimidin-4(7H)-yl)acetamide] | < 100 | < 100 |
| CCc1c(N2CCN(C(=O)CNC(=O)c3ccns3)CC2)c(=O)n2nc(C3=CCOCC3)nc2n1CC(=O)Nc1ccc(C(F)(F)F)cc1F [Example 219, N-(2-(4-(2-(3,6-Dihydro-2H-pyran-4-yl)-5-ethyl-4-(2-((2-fluoro-4-(trifluoromethyl)phenyl)amino)-2-oxoethyl)-7-oxo-4,7-dihydro-[1,2,4]triazolo[1,5-a]pyrimidin-6-yl)piperazin-1-yl)-2-oxoethyl)isothiazole-5-carboxamide] | < 100 | < 100 |
| CCc1c(N2CCN(C(=O)C(=O)NOCc3ccccc3)CC2)c(=O)n2nc(C3=CCOCC3)nc2n1CC(=O)Nc1ccc(C(F)(F)F)cc1Cl [Example 337, N-(Benzyloxy)-2-(4-(4-(2-((2-chloro-4-(trifluoromethyl)phenyl)amino)-2-oxoethyl)-2-(3,6-dihydro-2H-pyran-4-yl)-5-ethyl-7-oxo-4,7-dihydro-[1,2,4]triazolo[1,5-a]pyrimidin-6-yl)piperazin-1-yl)-2-oxoacetamide] | < 100 | < 100 |
| CCc1c(N2CCN(C(=O)c3cnc4cc(C)cn4c3O)CC2)c(=O)n2nc(C3=CCOCC3)nc2n1CC(=O)Nc1ccc(C(F)(F)F)cc1Cl [Example 92, N-(2-Chloro-4-(trifluoromethyl)phenyl)-2-(2-(3,6-dihydro-2H-pyran-4-yl)-5-ethyl-6-(4-(4-hydroxy-7-methylpyrrolo[1,2-a]pyrimidine-3-carbonyl)piperazin-1-yl)-7-oxo-[1,2,4]triazolo[1,5-a]pyrimidin-4(7H)-yl)acetamide] | < 100 | < 100 |
| CCc1c(N2CCN(C(=O)CNC(=O)c3cc(C#N)ccc3F)CC2)c(=O)n2nc(C3=CCOCC3)nc2n1CC(=O)Nc1ccc(C(F)(F)F)cc1Cl [Example 382, N-(2-(4-(4-(2-((2-Chloro-4-(trifluoromethyl)phenyl)amino)-2-oxoethyl)-2-(3,6-dihydro-2H-pyran-4-yl)-5-ethyl-7-oxo-4,7-dihydro-[1,2,4]triazolo[1,5-a]pyrimidin-6-yl)piperazin-1-yl)-2-oxoethyl)-5-cyano-2-fluorobenzamide] | < 100 | < 100 |
| CCc1c(N2CCN(C(=O)CNc3nc(=O)c4ccccc4[nH]3)CC2)c(=O)n2nc(C3=CCOCC3)nc2n1CC(=O)Nc1ccc(C(F)(F)F)cc1Cl [Example 208, N-(2-Chloro-4-(trifluoromethyl)phenyl)-2-(2-(3,6-dihydro-2H-pyran-4-yl)-5-ethyl-7-oxo-6-(4-((4-oxo-1,4-dihydroquinazolin-2-yl)glycyl)piperazin-1-yl)-[1,2,4]triazolo[1,5-a]pyrimidin-4(7H)-yl)acetamide] | < 100 | < 100 |
